According to US11911376B2, “Methods for preventing and treating retinal damage” (THE REGENTS OF THE UNIVERSITY OF COLORADO, priority 2020, dated 2024):

Key:
[1] = tested on: retinal ganglion cells (RGCs); test: Ischemia/reperfusion (I/R) injury model in mice, Brn3a-positive RGC loss in flat-mounted retinas; type: in vivo, WT (C57BL/6J) mice
Description: To evaluate the effects of kynurenic acid on retinal conditions characterized by RGC death, e.g., glaucoma, wild-type (WT) mice were subjected to ischemia/reperfusion (I/R) injury, which induced RGC death. I/R injury was performed by first anesthetizing 12-week-old WT (C57BL/6J) mice with an intraperitoneal injection of ketamine/xylazine confirmed by the toe-pinch test. The mice were then placed on a heating pad throughout the procedure to maintain their body temperature. The right eye of each animal was cannulated into the anterior chamber with a 33-gauge needle connected to an elevated saline reservoir. The height of the reservoir was adjusted to achieve an intraocular pressure of 120 mmHg. After 60 min of this procedure, the needle was removed.
(§1) Treatment mice were given kynurenic acid intravenously or intravitreally, while control mice were subjected to the same I/R injury but not given kynurenic acid. Intravenous and intravitreal administration of kynurenic acid was performed immediately after I/R injury and again 24 hours post-injury. Kynurenic acid was injected intravenously via the tail vein into WT mice at a concentration of 2.5 mg/animal (25 mg/mL stock dissolved in 0.1 N NaOH, diluted in 0.1 M sodium phosphate buffer, and adjusted to pH 7). After 2 hours, kynurenic acid levels in the serum and retina were measured. Control animals received 0.1 M sodium phosphate buffer (pH 7) alone.
Kynurenic acid was injected intravitreally into separate WT mice at a concentration of either 5 or 10 μg/animal (5 mg/mL stock of kynurenic acid was dissolved in 0.1 N NaOH and diluted in 0.1 M sodium phosphate buffer adjusted to pH 7). Control animals were intravitreally injected with buffer alone. Intravitreal injection was performed using a 33-gauge needle attached to a Hamilton syringe (Hamilton Bonaduz AG, Bonaduz, Switzerland). The eye lids were carefully parted, and the 33-gauge needle was inserted at a 45° angle into the vitreous, just behind the limbus. One or two microliters of solution was injected in 1 μL increments with a 30 second gap between each injection. After injection, the needle was slowly withdrawn, and the injected area was treated with a topical antibiotic. Mice were anesthetized with a cocktail containing ketamine and xylazine prior to the intravitreal injections.
All mice were euthanized and retinas dissected 14 days after I/R injury, flat-mounted and immunostained for Brn3a (brain-specific homeobox/POU domain protein 3A), which is a marker for RGCs.

[2] = Kynurenic acid levels in serum and retina by LC-MS/MS after intravenous injection (blood retinal barrier permeability); type: in vivo, WT mice; details: intravenous 2.5 mg/animal, two hours after injection, relative to sodium phosphate buffer-injected control mice, *p<0.05
Description: as §1
To first determine whether kynurenic acid is permeable across the blood retinal barrier, kynurenic acid levels in the serum and retina of six WT mice intravenously injected with kynurenic acid (KYNA) were measured by LC=MS/MS two hours after injection.

kynurenic acid levels in retina [2]: increased significantly | kynurenic acid levels in serum [2]: increased significantly
Structure (SMILES): O=C(O)c1cc(=O)c2ccccc2[nH]1 [kynurenic acid]
level of RGC loss, central retina ([1]; intravenous 2.5 mg/animal immediately after I/R injury and again 24 hours post-injury, Brn3a-positive RGCs per mm2, 14 days after I/R, I/R control 36.3%): 11.2% | level of RGC loss, peripheral retina ([1]; intravenous 2.5 mg/animal immediately after I/R injury and again 24 hours post-injury, Brn3a-positive RGCs per mm2, 14 days after I/R, I/R control 50%): 29.4% | level of RGC loss, central retina ([1]; intravitreal 5 μg immediately after I/R and 24 hours post-injury, 14 days after I/R, I/R control 66.1%): 32.4% | level of RGC loss, peripheral retina ([1]; intravitreal 5 μg immediately after I/R and 24 hours post-injury, 14 days after I/R, I/R control 70.9%): 46.1% | level of RGC loss, central retina ([1]; intravitreal 10 μg immediately after I/R and 24 hours post-injury, 14 days after I/R, I/R control 66.1%): 18.5% | level of RGC loss, peripheral retina ([1]; intravitreal 10 μg immediately after I/R and 24 hours post-injury, 14 days after I/R, I/R control 70.9%): 26.8%
